Converted amounts (≈) assume the structure as drawn. Where two headings read alike, the source gives them in different places.
How the values were obtained:
Assay type in all cases: cell-based
[1] = test system: E. coli K12 KEA-12 (GyrA); test: Antibacterial activity in vitro (MIC, standard agar method); settings: Escherichia coli, 20 h, read-out: Minimum inhibitory concentration (MIC)
Protocol: (§1) The minimum inhibitory concentration (MIC) of the substances investigated against gram-positive and gram-negative strains was determined using standard agar methods. The compounds were dissolved in a small amount of dimethyl sulphoxide, diluted with water and incorporated into liquified DST agar at 50° C. The thus-produced agar plates were used immediately thereafter in the test. The test concentrations lay between 128 and 0.06 μg/ml. The bacterial inoculation solutions were prepared from pre-cultures grown overnight, diluted and applied to the agar surface using an inoculation device (Denley A400). The plates were incubated at 35° C. for 20 hours. The MIC was determined as the lowest concentration of substance which prevented a visible growth. A scarcely visible turbidity and the growth of less than 5 colonies were ignored. The determinations of the antibacterial activities (Tab. 1) were carried out not only for the free bases, but also for the hydrochloride salt of each compound. The same values were obtained within experimental error.

E. coli 25922 = test: as above; settings: read-out: Minimum inhibitory concentration (MIC)
Protocol: as §1

P. aeroguinosa 3351 = test: as above; settings: 20 h, read-out: Minimum inhibitory concentration (MIC)
Protocol: as §1

E. coli 159 R = test: as above; settings: Escherichia coli, 159R, 20 h, read-out: Minimum inhibitory concentration (MIC)
Protocol: as §1

E. coli 1346 = test: as above; settings: Escherichia coli, DST agar, 35° C., 20 hours, read-out: Minimum inhibitory concentration (MIC)
Protocol: as §1

Staph. aureus 887 = test: as above; settings: Staphylococcus aureus, DST agar, 35° C., 20 hours, read-out: Minimum inhibitory concentration (MIC)
Protocol: as §1

E. coli DC2 = test: as above; settings: Escherichia coli, read-out: Minimum inhibitory concentration (MIC)
Protocol: as §1

E. coli AS-19 = test: as above; settings: Escherichia coli, AS19, DST agar, 35° C., 20 hours, read-out: Minimum inhibitory concentration (MIC)
Protocol: as §1

B. subtilis ATCC 585369 = test: as above; settings: Bacillus subtilis, ATCC585369, DST agar, 35° C., 20 hours, read-out: Minimum inhibitory concentration (MIC)
Protocol: as §1

K. oxytoca 1082E = test: as above; settings: Klebsiella oxytoca, DST agar, 35° C., 20 hours, read-out: Minimum inhibitory concentration (MIC)
Protocol: as §1

E. coli H560 = test: as above; settings: Escherichia coli, H560, 20 h, read-out: Minimum inhibitory concentration (MIC)
Protocol: as §1

P. aeruginosa 799/61 = test: as above; settings: Pseudomonas aeruginosa, 799/61, 20 h, read-out: Minimum inhibitory concentration (MIC)
Protocol: as §1

S. marcescens = test: as above; settings: Serratia marcescens, 20 h, read-out: Minimum inhibitory concentration (MIC)
Protocol: as §1

E. coli B = test: as above; settings: Escherichia coli, DST agar, 35° C., 20 hours, read-out: Minimum inhibitory concentration (MIC)
Protocol: as §1

Staph. aureus 25923 = test: as above; settings: Staphylococcus aureus, DST agar, 35° C., 20 hours, read-out: Minimum inhibitory concentration (MIC)
Protocol: as §1

E. faecalis 6 = test: as above; settings: Enterococcus faecalis; E. faecalis 6; DST agar, 35° C., 20 hours; read-out: Minimum inhibitory concentration (MIC)
Protocol: as §1

P. aeroginosa BA = test: as above; settings: DST agar, 35° C., 20 hours, read-out: Minimum inhibitory concentration (MIC)
Protocol: as §1

E. coli 1527 E = test: as above; settings: Escherichia coli, 1527E, 20 h, read-out: Minimum inhibitory concentration (MIC)
Protocol: as §1

E. cloacae P 99 = test: as above; settings: Enterobacter cloacae, P99, 20 h, read-out: Minimum inhibitory concentration (MIC)
Protocol: as §1

Staph. haemolyticus 75 = test: as above; settings: Staphylococcus haemolyticus, DST agar, 35° C., 20 hours, read-out: Minimum inhibitory concentration (MIC)
Protocol: as §1

S. aureus 101 = test: as above; settings: Staphylococcus aureus, DST agar, 35° C., 20 hours, read-out: Minimum inhibitory concentration (MIC)
Protocol: as §1

S. aureus 853 = test: as above; settings: Staphylococcus aureus, DST agar, 35° C., 20 hours, read-out: Minimum inhibitory concentration (MIC)
Protocol: as §1

[2] = test system: Helicobacter pylori PH 81; test: Antibacterial activity against Helicobacter pylori in vitro (MIC, agar method); settings: PH81, H. pylori PH 81, Muller-Hinton agar, 5% sheep blood, incubation 7 days, read-out: Minimum inhibitory concentration (MIC)
Protocol: as §1
(§2) The antibacterial activities against Helicobacter pylori were carried out analogously to the method described above with the following variations: The compounds were incorporated into Muller-Hinton agar containing 5% sheep blood additive. The test concentrations lay between 10 and 0.1 μg/ml. […]

[3] = test system: Helicobacter pylori K 1585; test: as above; settings: K1585, H. pylori K 1585, Muller-Hinton agar, 5% sheep blood, incubation 4 days, read-out: Minimum inhibitory concentration (MIC)
Protocol: as §1, §2

[4] = E. coli DC2, DST agar, 35° C., 20 hours
[5] = Escherichia coli, E. coli 25922, DST agar, 35° C., 20 hours

SMILES | MIC [1] [µg/mL] | MIC (E. coli 25922; Escherichia coli, 25922, 20 h) [µg/mL] | MIC (P. aeroguinosa 3351) [µg/mL] | MIC (E. coli 159 R) [µg/mL] | MIC (E. coli 1346) [µg/mL] | MIC (Staph. aureus 887) [µg/mL] | MIC (E. coli AS-19) [µg/mL] | MIC (B. subtilis ATCC 585369) [µg/mL] | MIC (K. oxytoca 1082E) [µg/mL] | MIC (E. coli H560) [µg/mL] | MIC (P. aeruginosa 799/61) [µg/mL] | MIC (S. marcescens) [µg/mL] | MIC (E. coli B) [µg/mL] | MIC (Staph. aureus 25923) [µg/mL] | MIC (E. faecalis 6) [µg/mL] | MIC (P. aeroginosa BA) [µg/mL] | MIC (E. cloacae P 99) [µg/mL] | MIC (Staph. haemolyticus 75) [µg/mL] | MIC (E. coli DC2; [4]) [µg/mL] | MIC (S. aureus 101) [µg/mL] | further results
CCOc1ccc(-c2nc3ccc(-c4ccc5nc(-c6ccc(OCC)cc6)[nH]c5c4)cc3[nH]2)cc1 [Example 9, 2,2'-Bis-(4-ethoxy-phenyl)-6,6'-dibenzimidazole] | > 128 | > 128 | > 128 | > 128 | 16 (≈ 33.7 µM) | ≤ 0.5 | > 128 | ≤ 0.5 | > 128 | > 128 | > 128 | > 128 | > 128 | 2 (≈ 4.21 µM) | 64 (≈ 135 µM) | > 128 | > 128 | 1 (≈ 2.11 µM) | – | – | MIC (E. coli DC2; DC2, 20 h): > 128 µg/mL; MIC (E. coli 1527 E): > 128 µg/mL
COc1ccc(-c2nc3ccc(-c4ccc5nc(-c6ccc(OC)c(O)c6)[nH]c5c4)cc3[nH]2)cc1O [Example 4, 5-[2'-(3-Hydroxy-4-methoxy-phenyl)-6,6'-dibenzimidazol-2-yl]-2-methoxy-phenol] | > 128 | > 128 | > 128 | – | ≤ 0.25 | 0.5 (≈ 1.04 µM) | 1 (≈ 2.09 µM) | ≤ 0.25 | > 128 | > 128 | > 128 | > 128 | ≤ 0.25 | 0.5 (≈ 1.04 µM) | 32 (≈ 66.9 µM) | > 128 | > 128 | ≤ 0.25 | 2 (≈ 4.18 µM) | ≤ 0.25 | MIC (E. coli 1527 E): > 128 µg/mL
N#Cc1ccc(-c2nc3ccc(-c4ccc5nc(-c6ccc(O)cc6)[nH]c5c4)cc3[nH]2)cc1 [Example 12, 4-[2'-(4-Hydroxy-phenyl)-6,6'-dibenzimidazol-2-yl]-benzonitrile] | > 128 | – | > 128 | > 128 | 1 (≈ 2.34 µM) | 2 (≈ 4.68 µM) | 32 (≈ 74.9 µM) | 2 (≈ 4.68 µM) | > 128 | > 128 | > 128 | – | 2 (≈ 4.68 µM) | 1 (≈ 2.34 µM) | 4 (≈ 9.36 µM) | > 128 | > 128 | 0.25 (≈ 0.585 µM) | 8 (≈ 18.7 µM) | 4 (≈ 9.36 µM) | MIC (S. aureus 853): 2 µg/mL (≈ 4.68 µM); MIC (E. coli 25922; [5]): > 128 µg/mL
Cc1cc(-c2nc3ccc(-c4ccc5nc(-c6ccc(O)c(C)c6)[nH]c5c4)cc3[nH]2)ccc1O [Example 2] | > 128 | 128 (≈ 287 µM) | > 128 | > 128 | 2 (≈ 4.48 µM) | ≤ 0.25 | 4 (≈ 8.96 µM) | – | > 128 | > 128 | > 128 | – | 0.5 (≈ 1.12 µM) | ≤ 0.25 | ≤ 0.25 | > 128 | > 128 | ≤ 0.25 | 4 (≈ 8.96 µM) | 0.5 (≈ 1.12 µM) | MIC (S. aureus 853): ≤ 0.25 µg/mL; MIC [2]: < 0.1 µg/mL; MIC [3]: 1 µg/mL (≈ 2.24 µM)
CCOc1ccc(-c2nc3ccc(-c4ccc5nc(-c6ccc(O)cc6)[nH]c5c4)cc3[nH]2)cc1 [Example 11, 4-[2'-(4-Ethoxy-phenyl)-6,6'-dibenzimidazol-2-yl]-phenol] | > 128 | – | > 128 | > 128 | 0.25 (≈ 0.56 µM) | 0.25 (≈ 0.56 µM) | 0.5 (≈ 1.12 µM) | 0.25 (≈ 0.56 µM) | > 128 | > 128 | > 128 | – | 0.5 (≈ 1.12 µM) | 0.25 (≈ 0.56 µM) | 0.5 (≈ 1.12 µM) | > 128 | > 128 | 0.12 (≈ 0.269 µM) | 1 (≈ 2.24 µM) | 0.5 (≈ 1.12 µM) | MIC (S. aureus 853): 0.25 µg/mL (≈ 0.56 µM); MIC (E. coli 25922; [5]): > 128 µg/mL; MIC [2]: < 0.1 µg/mL; MIC [3]: 1 µg/mL (≈ 2.24 µM)
Oc1cccc(-c2nc3ccc(-c4ccc5nc(-c6cccc(O)c6)[nH]c5c4)cc3[nH]2)c1 [Example 6, 3-[2'-(3-Hydroxy-phenyl)-6,6'-dibenzimidazol-2-yl]-phenol] | > 128 | – | > 128 | – | 2 (≈ 4.78 µM) | 2 (≈ 4.78 µM) | 1 (≈ 2.39 µM) | 2 (≈ 4.78 µM) | > 128 | > 128 | > 128 | > 128 | 0.5 (≈ 1.19 µM) | 2 (≈ 4.78 µM) | 2 (≈ 4.78 µM) | > 128 | > 128 | 1 (≈ 2.39 µM) | 1 (≈ 2.39 µM) | 0.12 (≈ 0.287 µM) | MIC (E. coli 25922; [5]): > 128 µg/mL; MIC (E. coli 1527 E): > 128 µg/mL

From patent US5824698A, “Antibacterial dibenzimidazole derivatives” (priority 1994, dated 1998)
